pIC50: −log10 of the molar value.
What follows are molecules tested against human Cav2.2 (Homo sapiens, UniProt Q00975) (assay: Assessment of calcium channel activity using FLIPR (Ca2+ influx in IMR32 cells)). Settings: 60 minute pre-incubation with compound, 2 μM nifedipine, depolarized with 80 mM KCl.
Type: cell-based
Procedure, shortened: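 IC50 came from sigmoidal non-linear regression of percent inhibition, relative to uninhibited activity, across compound concentrations. Calcium influx was measured by FLIPR in IMR32 cells plated at 1-1.2×10^5 cells/well and cultured 48 h at 37 °C.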

Chain of human Cav2.2 (Q00975 whole entry): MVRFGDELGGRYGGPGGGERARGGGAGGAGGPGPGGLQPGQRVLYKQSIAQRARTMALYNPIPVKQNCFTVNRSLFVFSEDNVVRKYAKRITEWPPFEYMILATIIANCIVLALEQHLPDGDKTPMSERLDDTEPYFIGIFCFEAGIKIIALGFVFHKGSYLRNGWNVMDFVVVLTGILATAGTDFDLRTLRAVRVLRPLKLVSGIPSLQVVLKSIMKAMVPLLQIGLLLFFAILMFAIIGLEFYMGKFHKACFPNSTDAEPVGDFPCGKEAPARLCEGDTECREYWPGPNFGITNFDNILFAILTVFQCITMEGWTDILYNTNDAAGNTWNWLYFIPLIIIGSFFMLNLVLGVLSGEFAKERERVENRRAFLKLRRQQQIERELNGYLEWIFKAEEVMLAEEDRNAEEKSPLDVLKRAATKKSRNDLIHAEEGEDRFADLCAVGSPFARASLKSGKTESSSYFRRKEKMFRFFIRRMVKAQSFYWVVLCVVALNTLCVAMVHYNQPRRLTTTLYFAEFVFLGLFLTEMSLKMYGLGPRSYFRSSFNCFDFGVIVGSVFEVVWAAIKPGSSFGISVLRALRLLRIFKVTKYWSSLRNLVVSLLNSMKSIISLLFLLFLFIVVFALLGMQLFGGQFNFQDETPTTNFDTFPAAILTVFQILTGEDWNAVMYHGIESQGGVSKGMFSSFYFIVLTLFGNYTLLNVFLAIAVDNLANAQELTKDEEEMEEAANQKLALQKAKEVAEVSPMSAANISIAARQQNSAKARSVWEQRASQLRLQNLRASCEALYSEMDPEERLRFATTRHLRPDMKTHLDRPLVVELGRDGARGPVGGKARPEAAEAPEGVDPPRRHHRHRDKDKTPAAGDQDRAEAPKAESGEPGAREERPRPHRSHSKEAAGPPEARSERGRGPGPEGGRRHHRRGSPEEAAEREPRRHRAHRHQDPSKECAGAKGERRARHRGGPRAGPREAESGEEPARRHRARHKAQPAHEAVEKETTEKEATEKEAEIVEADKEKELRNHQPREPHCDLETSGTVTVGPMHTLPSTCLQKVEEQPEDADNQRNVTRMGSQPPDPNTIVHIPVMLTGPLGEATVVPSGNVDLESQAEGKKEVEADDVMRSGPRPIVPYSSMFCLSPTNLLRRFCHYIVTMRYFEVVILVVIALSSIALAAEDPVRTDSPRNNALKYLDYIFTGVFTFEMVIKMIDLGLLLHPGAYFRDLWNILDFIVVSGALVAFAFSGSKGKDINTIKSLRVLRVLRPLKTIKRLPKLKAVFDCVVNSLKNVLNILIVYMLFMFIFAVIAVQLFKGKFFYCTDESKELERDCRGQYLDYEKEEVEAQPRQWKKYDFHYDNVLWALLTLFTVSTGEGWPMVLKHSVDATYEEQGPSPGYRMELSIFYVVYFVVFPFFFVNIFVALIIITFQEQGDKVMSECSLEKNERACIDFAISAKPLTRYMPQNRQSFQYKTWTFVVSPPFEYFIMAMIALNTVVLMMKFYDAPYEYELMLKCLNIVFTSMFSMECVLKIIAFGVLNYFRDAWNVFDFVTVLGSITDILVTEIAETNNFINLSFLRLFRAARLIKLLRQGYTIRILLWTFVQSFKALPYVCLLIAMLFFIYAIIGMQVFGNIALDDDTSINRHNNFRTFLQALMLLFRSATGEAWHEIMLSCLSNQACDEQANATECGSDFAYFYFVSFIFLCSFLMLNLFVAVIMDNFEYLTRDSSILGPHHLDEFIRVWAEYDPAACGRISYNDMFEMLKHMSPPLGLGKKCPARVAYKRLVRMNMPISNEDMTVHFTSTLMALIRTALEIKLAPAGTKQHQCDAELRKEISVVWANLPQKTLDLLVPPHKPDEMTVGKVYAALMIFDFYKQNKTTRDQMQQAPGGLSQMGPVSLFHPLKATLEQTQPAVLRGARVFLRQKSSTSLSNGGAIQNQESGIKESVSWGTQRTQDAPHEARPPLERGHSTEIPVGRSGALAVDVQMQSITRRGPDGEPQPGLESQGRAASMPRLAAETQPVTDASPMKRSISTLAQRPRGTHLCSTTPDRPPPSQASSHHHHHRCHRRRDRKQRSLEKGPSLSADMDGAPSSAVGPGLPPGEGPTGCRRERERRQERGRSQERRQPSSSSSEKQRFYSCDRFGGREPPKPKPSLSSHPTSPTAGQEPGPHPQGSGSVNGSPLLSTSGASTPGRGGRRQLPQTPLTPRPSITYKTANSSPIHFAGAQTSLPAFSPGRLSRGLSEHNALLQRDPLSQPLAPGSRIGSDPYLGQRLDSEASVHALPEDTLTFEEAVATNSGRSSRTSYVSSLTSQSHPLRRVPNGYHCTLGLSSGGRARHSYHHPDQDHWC
Chain of human Cav2.2 (P54289 25-946 partner limits assumed): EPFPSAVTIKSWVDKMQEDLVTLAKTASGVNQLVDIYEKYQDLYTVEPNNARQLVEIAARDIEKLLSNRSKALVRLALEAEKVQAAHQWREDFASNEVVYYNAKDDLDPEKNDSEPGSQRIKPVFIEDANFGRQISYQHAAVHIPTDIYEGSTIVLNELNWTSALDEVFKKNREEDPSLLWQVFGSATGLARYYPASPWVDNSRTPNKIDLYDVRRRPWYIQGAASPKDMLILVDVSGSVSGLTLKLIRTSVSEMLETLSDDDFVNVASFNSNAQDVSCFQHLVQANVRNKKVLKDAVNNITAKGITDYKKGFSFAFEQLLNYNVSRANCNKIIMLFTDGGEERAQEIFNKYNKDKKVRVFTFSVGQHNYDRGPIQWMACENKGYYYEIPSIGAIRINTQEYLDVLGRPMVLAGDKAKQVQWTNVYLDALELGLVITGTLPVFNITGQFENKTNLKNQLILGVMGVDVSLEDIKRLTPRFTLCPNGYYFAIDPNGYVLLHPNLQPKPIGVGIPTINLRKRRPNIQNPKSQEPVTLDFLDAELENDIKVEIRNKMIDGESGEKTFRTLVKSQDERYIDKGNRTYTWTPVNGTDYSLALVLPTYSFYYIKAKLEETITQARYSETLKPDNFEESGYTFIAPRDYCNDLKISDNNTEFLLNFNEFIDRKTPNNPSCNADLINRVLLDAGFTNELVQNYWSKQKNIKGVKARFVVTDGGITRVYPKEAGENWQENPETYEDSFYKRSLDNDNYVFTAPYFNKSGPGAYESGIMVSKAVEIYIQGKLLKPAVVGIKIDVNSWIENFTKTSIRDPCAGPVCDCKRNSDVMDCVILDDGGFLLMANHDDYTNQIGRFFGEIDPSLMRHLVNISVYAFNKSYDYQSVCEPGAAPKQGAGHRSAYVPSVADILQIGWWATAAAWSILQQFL
Chain of human Cav2.2 (P54289 947-1103 partner limits assumed): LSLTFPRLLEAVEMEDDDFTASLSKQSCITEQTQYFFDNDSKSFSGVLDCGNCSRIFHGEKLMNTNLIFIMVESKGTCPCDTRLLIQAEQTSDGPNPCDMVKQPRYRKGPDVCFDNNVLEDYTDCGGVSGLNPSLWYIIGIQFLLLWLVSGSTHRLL
Chain of human Cav2.2 (P54284 whole entry partner): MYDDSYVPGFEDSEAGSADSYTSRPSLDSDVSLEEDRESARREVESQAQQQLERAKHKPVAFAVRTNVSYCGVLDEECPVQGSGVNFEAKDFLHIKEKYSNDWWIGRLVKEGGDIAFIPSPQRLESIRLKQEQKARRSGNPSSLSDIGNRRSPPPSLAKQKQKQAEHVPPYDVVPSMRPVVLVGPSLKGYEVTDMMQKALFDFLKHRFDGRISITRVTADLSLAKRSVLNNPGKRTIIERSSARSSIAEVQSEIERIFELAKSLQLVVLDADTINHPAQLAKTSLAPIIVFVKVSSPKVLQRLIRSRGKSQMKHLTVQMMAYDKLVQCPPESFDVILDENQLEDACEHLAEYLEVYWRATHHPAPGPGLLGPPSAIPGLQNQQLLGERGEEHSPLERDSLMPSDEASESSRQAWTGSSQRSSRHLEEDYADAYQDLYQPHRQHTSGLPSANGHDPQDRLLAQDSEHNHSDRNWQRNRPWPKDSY

Row | pIC50 | SMILES
1 | 6.36 | CC(C)C[C@@H](C(=O)N[C@@H]1CC[C@H]2CN(S(=O)(=O)c3cccc(C(F)(F)F)c3)C[C@H]21)N1CCCCC1 [Example 321, (2S)-4-methyl-2-piperidin-1-yl-N-((3aS,4R,6aR)-2-{[3-(trifluoromethyl)phenyl]sulfonyl}octahydrocyclopenta[c]pyrrol-4-yl)pentanamide]
2 | 6.15 | CC(C)C[C@@H](C(=O)N[C@H]1CC[C@@H]2CN(S(=O)(=O)c3cccc(C(F)(F)F)c3)C[C@@H]21)N(C)C(=O)OC(C)(C)C [Example 322, tert-butyl methyl((S)-4-methyl-1-oxo-1-((3aR,4S,6aS)-2-(3-(trifluoromethyl)phenylsulfonyl)octahydrocyclopenta[c]pyrrol-4-ylamino)pentan-2-yl)carbamate]
3 | 6.70 | CCN(C(=O)OC(C)(C)C)[C@@H](CC(C)C)C(=O)N[C@H]1CC[C@@H]2CN(S(=O)(=O)c3cccc(C(F)(F)F)c3)C[C@@H]21 [Example 323, tert-butyl ethyl((S)-4-methyl-1-oxo-1-((3aR,4S,6aS)-2-(3-(trifluoromethyl)phenylsulfonyl)octahydrocyclopenta[c]pyrrol-4-ylamino)pentan-2-yl)carbamate]
4 | 6.16 | CC(C)C[C@@H](C(=O)N[C@@H]1CC[C@H]2CN(S(=O)(=O)c3ccc(C(F)(F)F)cc3)C[C@H]21)N(C)C(=O)OC(C)(C)C [Example 324, tert-butyl methyl((S)-4-methyl-1-oxo-1-((3aS,4R,6aR)-2-(4-(trifluoromethyl)phenylsulfonyl)octahydrocyclopenta[c]pyrrol-4-ylamino)pentan-2-yl)carbamate]
5 | 6.60 | CC(C)C[C@@H](C(=O)N[C@@H]1CC[C@H]2CN(S(=O)(=O)c3cccc(C(F)(F)F)c3)C[C@H]21)N(C)C(=O)OC(C)(C)C [Example 325, tert-butyl methyl((S)-4-methyl-1-oxo-1-((3aS,4R,6aR)-2-(3-(trifluoromethyl)phenylsulfonyl)octahydrocyclopenta[c]pyrrol-4-ylamino)pentan-2-yl)carbamate]
6 | 5.84 | CC(C)C[C@@H](C(=O)N[C@@H]1CC[C@H]2CN(S(=O)(=O)c3ccc(F)cc3)C[C@H]21)N(C)C(=O)OC(C)(C)C [Example 326, tert-butyl(S)-1-((3aS,4R,6aR)-2-(4-fluorophenylsulfonyl)octahydrocyclopenta[c]pyrrol-4-ylamino)-4-methyl-1-oxopentan-2-yl(methyl)carbamate]
7 | 5.74 | CC(C)C[C@@H](C(=O)N[C@@H]1CC[C@H]2CN(S(=O)(=O)c3ccc(F)c(C(F)(F)F)c3)C[C@H]21)N(C)C(=O)OC(C)(C)C [Example 327, tert-butyl(S)-1-((3aS,4R,6aR)-2-(4-fluoro-3-(trifluoromethyl)phenylsulfonyl)octahydrocyclopenta[c]pyrrol-4-ylamino)-4-methyl-1-oxopentan-2-yl(methyl)carbamate]
8 | 5.59 | CC(C)C[C@@H](C(=O)N[C@@H]1CC[C@@H]2CN(S(=O)(=O)c3ccc(C(F)(F)F)cc3)C[C@@H]21)N(C)C(=O)OC(C)(C)C [Example 329, tert-butyl methyl((S)-4-methyl-1-oxo-1-((3aR,4R,6aS)-2-(4-(trifluoromethyl)phenylsulfonyl)octahydrocyclopenta[c]pyrrol-4-ylamino)pentan-2-yl)carbamate]
9 | 5.95 | CCC[C@@H](C(=O)N[C@@H]1CC[C@H]2CN(S(=O)(=O)c3ccc(F)cc3)C[C@H]21)N(C)C(=O)OC(C)(C)C [Example 330, tert-butyl(S)-1-((3aS,4R,6aR)-2-(4-fluorophenylsulfonyl)octahydrocyclopenta[c]pyrrol-4-ylamino)-1-oxopentan-2-yl(methyl)carbamate]
10 | 6.12 | CCC[C@@H](C(=O)N[C@@H]1CC[C@H]2CN(S(=O)(=O)c3ccc(C(F)(F)F)cc3)C[C@H]21)N(C)C(=O)OC(C)(C)C [Example 331, tert-butyl methyl((S)-1-oxo-1-((3aS,4R,6aR)-2-(4-(trifluoromethyl)phenylsulfonyl)octahydrocyclopenta[c]pyrrol-4-ylamino)pentan-2-yl)carbamate]
11 | 6.32 | CC[C@H](C)[C@@H](C(=O)N[C@H]1CC[C@@H]2CN(S(=O)(=O)c3cccc(C(F)(F)F)c3)C[C@@H]21)N(C)C(=O)OC(C)(C)C [Example 332, tert-butyl methyl((2S,3S)-3-methyl-1-oxo-1-((3aR,4S,6aS)-2-(3-(trifluoromethyl)phenylsulfonyl)octahydrocyclopenta[c]pyrrol-4-ylamino)pentan-2-yl)carbamate]
12 | 6.24 | CC[C@H](C)[C@@H](C(=O)N[C@H]1CC[C@@H]2CN(S(=O)(=O)c3ccc(C(F)(F)F)cc3)C[C@@H]21)N(C)C(=O)OC(C)(C)C [Example 333, tert-butyl methyl((2S,3S)-3-methyl-1-oxo-1-((3aR,4S,6aS)-2-(4-(trifluoromethyl)phenylsulfonyl)octahydrocyclopenta[c]pyrrol-4-ylamino)pentan-2-yl)carbamate]
13 | 6.16 | CC[C@H](C)[C@@H](C(=O)N[C@@H]1CC[C@H]2CN(S(=O)(=O)c3cccc(C(F)(F)F)c3)C[C@H]21)N(C)C(=O)OC(C)(C)C [Example 334, tert-butyl methyl((2S,3S)-3-methyl-1-oxo-1-((3aS,4R,6aR)-2-(3-(trifluoromethyl)phenylsulfonyl)octahydrocyclopenta[c]pyrrol-4-ylamino)pentan-2-yl)carbamate]
14 | 6.08 | CC[C@H](C)[C@@H](C(=O)N[C@@H]1CC[C@H]2CN(S(=O)(=O)c3ccc(C(F)(F)F)cc3)C[C@H]21)N(C)C(=O)OC(C)(C)C [Example 335, tert-butyl methyl((2S,3S)-3-methyl-1-oxo-1-((3aS,4R,6aR)-2-(4-(trifluoromethyl)phenylsulfonyl)octahydrocyclopenta[c]pyrrol-4-ylamino)pentan-2-yl)carbamate]
15 | 6.32 | CN(C(=O)OC(C)(C)C)[C@@H](CC(C)(C)C)C(=O)N[C@H]1CC[C@@H]2CN(S(=O)(=O)c3cccc(C(F)(F)F)c3)C[C@@H]21 [Example 336, tert-butyl(S)-4,4-dimethyl-1-oxo-1-((3aR,4S,6aS)-2-(3-(trifluoromethyl)phenylsulfonyl)octahydrocyclopenta[c]pyrrol-4-ylamino)pentan-2-yl(methyl)carbamate]
16 | 6.11 | CN(C(=O)OC(C)(C)C)[C@@H](CC(C)(C)C)C(=O)N[C@H]1CC[C@@H]2CN(S(=O)(=O)c3ccc(C(F)(F)F)cc3)C[C@@H]21 [Example 337, tert-butyl(S)-4,4-dimethyl-1-oxo-1-((3aR,4S,6aS)-2-(4-(trifluoromethyl)phenylsulfonyl)octahydrocyclopenta[c]pyrrol-4-ylamino)pentan-2-yl(methyl)carbamate]
17 | 6.64 | CN(C(=O)OC(C)(C)C)[C@@H](CC(C)(C)C)C(=O)N[C@@H]1CC[C@H]2CN(S(=O)(=O)c3cccc(C(F)(F)F)c3)C[C@H]21 [Example 338, tert-butyl(S)-4,4-dimethyl-1-oxo-1-((3aS,4R,6aR)-2-(3-(trifluoromethyl)phenylsulfonyl)octahydrocyclopenta[c]pyrrol-4-ylamino)pentan-2-yl(methyl)carbamate]
18 | 5.95 | CN(C(=O)OC(C)(C)C)[C@@H](CC(C)(C)C)C(=O)N[C@@H]1CC[C@H]2CN(S(=O)(=O)c3ccc(C(F)(F)F)cc3)C[C@H]21 [Example 339, tert-butyl(S)-4,4-dimethyl-1-oxo-1-((3aS,4R,6aR)-2-(4-(trifluoromethyl)phenylsulfonyl)octahydrocyclopenta[c]pyrrol-4-ylamino)pentan-2-yl(methyl)carbamate]
19 | 5.99 | CC(C)[C@@H](C(=O)N[C@@H]1CC[C@H]2CN(S(=O)(=O)c3cccc(C(F)(F)F)c3)C[C@H]21)N(C)C(=O)OC(C)(C)C [Example 340, tert-butyl methyl((S)-3-methyl-1-oxo-1-((3aS,4R,6aR)-2-(3-(trifluoromethyl)phenylsulfonyl)octahydrocyclopenta[c]pyrrol-4-ylamino)butan-2-yl)carbamate]
20 | 5.70 | CC(C)(C)OC(=O)N[C@H](C(=O)N[C@H]1CC[C@@H]2CN(S(=O)(=O)c3ccc(C(F)(F)F)cc3)C[C@@H]21)C(C)(C)C [Example 341, tert-butyl(S)-3,3-dimethyl-1-oxo-1-((3aR,4S,6aS)-2-(4-(trifluoromethyl)phenylsulfonyl)octahydrocyclopenta[c]pyrrol-4-ylamino)butan-2-ylcarbamate]
21 | 5.66 | CC(C)(C)OC(=O)N[C@H](C(=O)N[C@@H]1CC[C@H]2CN(S(=O)(=O)c3ccc(C(F)(F)F)cc3)C[C@H]21)C(C)(C)C [Example 342, tert-butyl(S)-3,3-dimethyl-1-oxo-1-((3aS,4R,6aR)-2-(4-(trifluoromethyl)phenylsulfonyl)octahydrocyclopenta[c]pyrrol-4-ylamino)butan-2-ylcarbamate]
22 | 6.00 | CCCC[C@@H](C(=O)N[C@H]1CC[C@@H]2CN(S(=O)(=O)c3ccc(C(F)(F)F)cc3)C[C@@H]21)N(C)C(=O)OC(C)(C)C [Example 343, tert-butyl methyl((S)-1-oxo-1-((3aR,4S,6aS)-2-(4-(trifluoromethyl)phenylsulfonyl)octahydrocyclopenta[c]pyrrol-4-ylamino)hexan-2-yl)carbamate]
23 | 6.00 | CC(C)(C)C[C@H](NC(=O)OC(C)(C)C)C(=O)N[C@H]1CC[C@@H]2CN(S(=O)(=O)c3ccc(C(F)(F)F)cc3)C[C@@H]21 [Example 344, tert-butyl(S)-4,4-dimethyl-1-oxo-1-((3aR,4S,6aS)-2-(4-(trifluoromethyl)phenylsulfonyl)octahydrocyclopenta[c]pyrrol-4-ylamino)pentan-2-ylcarbamate]
24 | 5.36 | CC(C)C[C@@H](C(=O)N[C@@H]1CC[C@H]2CN(C(=O)c3cccc(C(F)(F)F)c3)C[C@H]21)N1CCCC1 [Example 345, (2S)-4-methyl-2-pyrrolidin-1-yl-N-{(3aS,4R,6aR)-2-[3-(trifluoromethyl)benzoyl]octahydrocyclopenta[c]pyrrol-4-yl}pentanamide]
25 | 5.05 | CN[C@@H](CC(C)(C)C)C(=O)N[C@@H]1CC[C@H]2CN(Cc3ccccc3)C[C@H]21 [Example 358, N^1-[(3aS,4R,6aR)-2-benzyloctahydrocyclopenta[c]pyrrol-4-yl]-N^2,4-dimethyl-L-leucinamide]

Reference: patent publication US8129417B2, “Substituted octahydrocyclopenta[C]pyrrol-4-amines as calcium channel blockers” (Abbott Laboratories, priority 2008, dated 2012)
